Values quoted from earlier work in US20220395547A1, “LIPOSOMAL FORMULATIONS FOR DELIVERY OF CANNABINOIDS AND METHODS OF MAKING THEREOF” (Vella Bioscience, Inc., priority 2019, published 2022).

Test system: microorganisms
Conditions: known from the art

SMILES: CC(O)CO (stereo not shown) [propylene glycol]
- Concentration at which antimicrobial activity is present: ≥ 20%
